Measured values reported in US12121518B2, “PARP-1 and methods of use thereof” (The Board of Supervisors of Louisiana State University and …, priority 2017, dated 2024).
“Also recorded” adds a separate entry of the source.

Test system: APC^Min-induced tumor burden
Test: APC^Min/+ spontaneous intestinal tumorigenesis mouse model
Format: in vivo
Conditions: APC^Min/+ mice; for intestinal tumor burden: assessed at 16 weeks of age
Excerpt: If chronic inflammation is the sole mechanism by which PARP-1 participates in colon tumorigenesis, then the ability to severely block inflammation upon inhibition of the enzyme, pharmacologically or genetically, should almost entirely alleviate the tumor burden. According to the above data, however, this is not the case. […] In general, APC^Min/+ mice have a rather short lifespan and often die not only as a result of tumor burden but also due to development of severe anemia, substantial cachexia, and/or intestinal intussusceptions. To this end, C57BL/6 PARP-1^+/− and PARP-1^−/− mice were generated in the APC^Min/+ background (FIG. 39). PARP-1 heterozygosity provided remarkable protection against tumor development (FIG. 33A). […] Conversely, PARP-1 knockout promoted an increase in the number of small tumors.
Tumor models, assessment of tumor burden and adoptive transfer—For the azoxymethane/Dextran Sulfate Sodium (AOM/DSS)-induced tumorigenesis model, six to eight weeks old WT, PARP-1^+/− or PARP-1^−/− mice received a single dose (10 mg/kg) of AOM, i.p., followed by 4 cycles of 1.25% DSS provided in drinking water. Each cycle consisted of a week of DSS water separated by 2 weeks of regular water. […] At week 22 after the start of the experimental protocol, mice were sacrificed by CO2 asphyxiation. Colons, spleens, and blood were collected for analysis. Colons were opened longitudinally and washed with PBS to assess the tumor burdens using a dissecting microscope. For the APC^Min-mediated model, APC^Min/+, APC^Min/+PARP-1^+/−, or APC^Min/+PARP-1^−/− male mice were sacrificed at 16 weeks of age. […] Sacrificed mice were processed as described above except that the tumor burden was assessed along the whole intestinal track. Tumors were counted and divided in groups lower than 2 mm, 2-4 mm, and tumors bigger than 4 mm in diameter.
Tissue processing, immunohistochemistry, immunofluorescence and cytokines measurement—Some tissues were fixed in buffered formalin (10%), paraffin-embedded, then sectioned. Serial sections were subjected to H&E staining, immunohistochemistry (IHC) or immunofluorescence, as described (33), with antibodies to PCNA (Novusbio, Littleton, CO), COX-2 (Santa Cruz Biotechnology, Santa Cruz, CA), ICAM-1 (Santa Cruz Biotechnology), CD8 (Santa Cruz Biotechnology), or Gr1 (eBioscience, San Diego, USA) as previously described (34). Some of the sections were subjected to immunofluorescence with antibodies to CD8 or Gr1. Blood, collected by cardiac puncture, was run through a Microtainer Serum Separator tube (BD, Franklin Lake, NJ). The collected sera were immediately stored at −80° C. for future use and analysis. Cytokine levels were assessed for TNF-α (ELM-TNFα-1), IL-6 (ELM-IL-6-1), and MCP-1 (ELM-MCP1) by ELISA (all from RayBiotech, Norcross, GA) according to the manufacturer's instructions and recommendations.

O=C(c1cc(Cc2n[nH]c(=O)c3ccccc23)ccc1F)N1CCN(C(=O)C2CC2)CC1 [olaparib]
intestinal tumor burden (5 mg/kg i.p. twice a week): good protection against the tumor burden; also recorded: good protection against tumor development
intestinal tumor burden (5 mg/kg i.p. twice a week, listed as Olaparib): reduces the tumor burden
intestinal tumor burden (25 mg/kg i.p. twice a week): no protection against the burden; also recorded: no significant protection
systemic inflammation: effective at blocking systemic inflammation
cachexia (body weight) (high dose (25 mg/kg)): did not
cachexia (body weight) (moderate dose (5 mg/kg)): protected against cachexia
